Values joined by “and” are separate entries in the source; they are usually repeats but may differ in a detail not shown here. Identical values can stand only once. Like-named read-outs stand apart in the source and are kept apart here.
What was measured:
Format in all cases: cell-based, human
MV4-11 [1] = assay: Cell proliferation assay: GI50
Method in brief: (§1)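 Suspension cells at 1 × 10^6 cells/mL were treated in triplicate, then incubated 1–3 h with MTS reagent (CellTiter 96 AQueous One) for colorimetric viable-cell read-out. After medium-only background subtraction, absorbance was expressed as % of untreated cells, and GI50 was fitted by non-linear regression.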

HL-60 [2] = assay: Cell proliferation assay: GI50
Method in brief: as §1

ML-2 = assay: Cell proliferation assay: GI50
Method in brief: as §1

MOLM-13 [3] = assay: Cell proliferation assay: GI50
Method in brief: as §1

MV4-11 [4] = assay: Differentiation-apoptosis assay, CD11b / annexin-V / Sytox Green / myeloid markers flow cytometry; design: Cell viability (%): concentration or dose not given beside the values; CD11b levels: unit not given here
Experimental: (§2) Next, the cells were washed twice with phosphate-buffered saline (PBS) and resuspended in 1X Binding Buffer at a concentration of 1 × 10^6 cells/mL. An 8-µL aliquot of APC-CD11b (BD Pharmingen, Franklin Lakes, NJ, USA) and 1 µL of FITC annexin-V (AV) (BD Pharmingen, Franklin Lakes, NJ, USA) antibodies were added and incubated for 15 min at room temperature in the dark. Finally, after the addition of 400 µL of 1X Binding Buffer to each tube, samples were collected on a BD FACSCanto flow cytometer (Becton Dickinson, San Jose, CA, USA) and analyzed using FlowJo software.
(§3) For the rest of experiments, the mix of antibodies (2 µL of BV786-CD13, Cat No, 744748 BD; 1 µL of diluted 1:10 antibody of PB-HLADR, Cat No 307633, Biolegend; 5 µL of APCH7-CD14, Cat No 641394, BD) was added to 10 µL of Brilliant Stain Buffer Plus (Becton Dickinson, San Jose, CA, USA). Then, 1 million cells (volume of 250 µL) were added and incubated for 30 min at room temperature in darkness. After 10 min incubation at room temperature with 2 mL of FACSLysing 1X, cells were centrifuged at 540 g for 5 min and washed twice with FACSBuffer. Finally, after centrifugation at 540 g for 5 min cells were resuspended in FACSBuffer.

MOLM-13 [5] = assay: as above; design: Cell viability (%): concentration or dose not given beside the values; CD11b levels: unit not given here
Experimental: as §2, §3

HL-60 [6] = assay: as above; design: Cell viability (%): concentration or dose not given beside the values; CD11b levels: unit not given here
Method in brief: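 HL-60 cells were stained for the myeloid differentiation marker CD11b, with annexin-V and Sytox Green marking apoptosis and cell death. Cells were washed in PBS and resuspended at 1 × 10^6 cells/mL in binding buffer; marker staining of 1 million cells was for 30 min at room temperature in the dark, followed by red-cell lysis. Readout was flow cytometry.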

[7] = MV4-11, 48 h treatment, replicates 1-3 (Suppl. Fig. 5A)
[8] = MV4-11, daily treatment, time 0 days
[9] = MV4-11, daily treatment, time 2 days
[10] = MV4-11, daily treatment, time 4 days
[11] = MV4-11, daily treatment, time 6 days
[12] = MOLM-13, 48 h treatment, replicates 1-3 (Suppl. Fig. 5A)
[13] = MOLM-13, daily treatment, time 0 days
[14] = MOLM-13, daily treatment, time 2 days
[15] = MOLM-13, daily treatment, time 4 days
[16] = MOLM-13, daily treatment, time 6 days
[17] = MOLM-13, daily treatment, time 8 days
[18] = HL-60, 48 h treatment, replicates 1-3 (Suppl. Fig. 5A)
[19] = HL-60, daily treatment, time 0 days, replicates 1-3 (Figure 2B)
[20] = HL-60, daily treatment, time 2 days, replicates 1-3 (Figure 2B)
[21] = HL-60, daily treatment, time 4 days, replicates 1-3 (Figure 2B)
[22] = HL-60, daily treatment, time 6 days, replicates 1-3 (Figure 2B)
[23] = HL-60, daily treatment, time 8 days, replicates 1-3 (Figure 2B)

SMILES: COc1cc2nc(-c3ccc(C)o3)cc(NCC3CCN(c4ncc(C(=O)NO)cn4)CC3)c2cc1OC [CM-444, 2-[4-[[[6,7-dimethoxy-2-(5-methyl-2-furyl)-4-quinolyl]amino]methyl]-1-piperidyl]pyrimidine-5-carbohydroxamic acid]
- GI50 (MV4-11 [1]; Homo sapiens, MV4-11, 48 h): 621 nM
- GI50 (MV4-11 [1]; Homo sapiens, MV4-11, MV4-11, replicates 1-3): 458 nM
- GI50 (MV4-11 [1]; MV4-11, replicates 1-3): 765 nM and 641 nM
- GI50 (HL-60 [2]; HL-60, replicates 1-3, read-out: GI50): 987 nM and 1020 nM
- GI50 (HL-60 [2]; Homo sapiens, HL-60, 48 h, 48 h, read-out: HL-60 GI50): 1090 nM
- GI50 (HL-60 [2]; Homo sapiens, HL-60, HL-60, replicates 1-3, read-out: GI50): 1260 nM
- GI50 (ML-2; Homo sapiens, ML-2, ML-2, replicates 1-3): 988 nM
- GI50 (ML-2; ML-2, replicates 1-3): 1150 nM and 956 nM
- GI50 (MOLM-13 [3]; Homo sapiens, MOLM-13, MOLM-13, replicates 1-3): 1370 nM
- GI50 (MOLM-13 [3]; MOLM-13, replicates 1-3): 1120 nM and 883 nM
- CD11b (%) (MV4-11 [4]; MV4-11, 48 h): 58.9%
- CD13 (%) (MV4-11 [4]; MV4-11, 48 h): 98.0%
- CD14 (%) (MV4-11 [4]; MV4-11, 48 h): 57.6%
- HLA-DR (%) (MV4-11 [4]; MV4-11, 48 h): 42.1%
- CD11b (%) (MV4-11 [4]; [7]): 53.8% and 54.1% and 56.8%
- Cell viability (%) (MV4-11 [4]; [7]): 72.5% and 67.1% and 68%
- differentiation level (CD11b) (MV4-11 [4]; MV4-11, after 6–8 days of treatment): ~90%
- CD11b levels (MV4-11 [4]; MV4-11, daily treatment for 48 h, replicates 1-3 (Suppl. Fig. 9A)): 39.5 and 43.7 and 45.9
- Annexin-V (%) (MV4-11 [4]; [8]): 5.32% and 4.14% and 5.2%
- CD11b (%) (MV4-11 [4]; [8]): 11.1% and 6.62% and 5.25%
- Annexin-V (%) (MV4-11 [4]; [9]): 28.1% and 26.8% and 25.7%
- CD11b (%) (MV4-11 [4]; [9]): 30.2% and 35.8% and 36.8%
- Annexin-V (%) (MV4-11 [4]; [10]): 38.5% and 41.2% and 41.8%
- CD11b (%) (MV4-11 [4]; [10]): 53.4% and 55% and 51.8%
- Annexin-V (%) (MV4-11 [4]; [11]): 79.6% and 81.2% and 80.7%
- CD11b (%) (MV4-11 [4]; [11]): 74.9% and 73.2% and 74.5%
- CD11b (%) (MV4-11 [4]; MV4-11 cell line, replicates 1-3 (Figure 2A)): 41.7% and 49.8% and 50.4%
- CD11b (%) (MOLM-13 [5]; MOLM-13, 48 h): 92.8%
- CD13 (%) (MOLM-13 [5]; MOLM-13, 48 h): 49.3%
- CD14 (%) (MOLM-13 [5]; MOLM-13, 48 h): 66.5%
- HLA-DR (%) (MOLM-13 [5]; MOLM-13, 48 h): 35.1%
- CD11b (%) (MOLM-13 [5]; [12]): 94.2% and 88.9% and 85.7%
- Cell viability (%) (MOLM-13 [5]; [12]): 70.2% and 63.7% and 70.7%
- differentiation level (CD11b) (MOLM-13 [5]; MOLM-13, after 6–8 days of treatment): ~90%
- CD11b levels (MOLM-13 [5]; MOLM-13, daily treatment for 48 h, replicates 1-3 (Suppl. Fig. 9A)): 43.6 and 50.7 and 40.2
- Annexin-V (%) (MOLM-13 [5]; [13]): 4.46% and 6.55% and 4.89%
- CD11b (%) (MOLM-13 [5]; [13]): 6.62% and 4.5% and 6.9%
- Annexin-V (%) (MOLM-13 [5]; [14]): 24.6% and 15.6% and 17.4%
- CD11b (%) (MOLM-13 [5]; [14]): 63% and 58.9% and 57.2%
- Annexin-V (%) (MOLM-13 [5]; [15]): 66.7% and 40.3% and 35.6%
- CD11b (%) (MOLM-13 [5]; [15]): 60% and 65.3% and 63.1%
- Annexin-V (%) (MOLM-13 [5]; [16]): 72.2% and 50.7% and 45.3%
- CD11b (%) (MOLM-13 [5]; [16]): 66.7% and 70.8% and 65.2%
- Annexin-V (%) (MOLM-13 [5]; [17]): 68.1% and 55.1% and 49.2%
- CD11b (%) (MOLM-13 [5]; [17]): 68.9% and 75.7% and 73.6%
- CD11b (%) (MOLM-13 [5]; MOLM-13 cell line, replicates 1-3 (Figure 2A)): 73.8% and 63.3% and 68.4%
- percentage of CD11b (HL-60 [6]; HL-60, 270 nM CM-444 or 300 nM CM-1758 daily for 4 days, before injection): > 90%
- CD11b (%) (HL-60 [6]; HL-60, 48 h): 74.3%
- CD13 (%) (HL-60 [6]; HL-60, 48 h): 100%
- CD14 (%) (HL-60 [6]; HL-60, 48 h): 21.5%
- HLA-DR (%) (HL-60 [6]; HL-60, 48 h): 9.16%
- CD11b (%) (HL-60 [6]; [18]): 71.2% and 75.4% and 68.7%
- Cell viability (%) (HL-60 [6]; [18]): 78.5% and 72.1% and 82.5%
- differentiation level (CD11b) (HL-60 [6]; HL-60, after 6–8 days of treatment): ~90%
- Annexin V (%) Replicate 1 (HL-60 [6]; HL-60, daily 25% GI50, 48 h): 0.75%
- Annexin V (%) Replicate 2 (HL-60 [6]; HL-60, daily 25% GI50, 48 h): 0.49%
- Annexin V (%) Replicate 3 (HL-60 [6]; HL-60, daily 25% GI50, 48 h): 0.44%
- CD11b (%) Replicate 1 (HL-60 [6]; HL-60, daily 25% GI50, 48 h): 86.24%
- CD11b (%) Replicate 2 (HL-60 [6]; HL-60, daily 25% GI50, 48 h): 75.15%
- CD11b (%) Replicate 3 (HL-60 [6]; HL-60, daily 25% GI50, 48 h): 76.65%
- Annexin-V (%) (HL-60 [6]; [19]): 0% and 4.96% and 3.21%
- CD11b (%) (HL-60 [6]; [19]): 13.33% and 12.5% and 10.8%
- Annexin-V (%) (HL-60 [6]; [20]): 6.83% and 2.49% and 5.41%
- CD11b (%) (HL-60 [6]; [20]): 79.45% and 76.2% and 73.9%
- Annexin-V (%) (HL-60 [6]; [21]): 0% and 2.98% and 3.14%
- CD11b (%) (HL-60 [6]; [21]): 95.2% and 93.5% and 90.4%
- Annexin-V (%) (HL-60 [6]; [22]): 9.4% and 2.53% and 5.87%
- CD11b (%) (HL-60 [6]; [22]): 93% and 97.3% and 95.8%
- Annexin-V (%) (HL-60 [6]; [23]): 0% and 4.09% and 6.81%
- CD11b (%) (HL-60 [6]; [23]): 98.61% and 98.5% and 97.1%
- CD11b (%) (HL-60 [6]; HL-60 cell line, replicates 1-3 (Figure 2A)): 88.3% and 85.7% and 88.0%
- CD11b levels (HL-60 [6]; HL-60 treated daily for 48 h, replicates (Fig 6D)): 76.5 and 85.9 and 92.1

From paper PMC11219871, “Epigenetic-based differentiation therapy for Acute Myeloid Leukemia” (Nature Communications, 2024)
